Reference: BindingDB's records for doi:10.1124/jpet.103.053975 (National Institute On Drug Abuse, 2003)
Where “and” joins values, the source holds several entries; their conditions need not be identical. Equal values may be shown once.

What was measured:
[1] = molecular target: T1, Alpha-2C adrenergic receptor (Homo sapiens, UniProt P18825)
T1 sequence (P18825 whole entry): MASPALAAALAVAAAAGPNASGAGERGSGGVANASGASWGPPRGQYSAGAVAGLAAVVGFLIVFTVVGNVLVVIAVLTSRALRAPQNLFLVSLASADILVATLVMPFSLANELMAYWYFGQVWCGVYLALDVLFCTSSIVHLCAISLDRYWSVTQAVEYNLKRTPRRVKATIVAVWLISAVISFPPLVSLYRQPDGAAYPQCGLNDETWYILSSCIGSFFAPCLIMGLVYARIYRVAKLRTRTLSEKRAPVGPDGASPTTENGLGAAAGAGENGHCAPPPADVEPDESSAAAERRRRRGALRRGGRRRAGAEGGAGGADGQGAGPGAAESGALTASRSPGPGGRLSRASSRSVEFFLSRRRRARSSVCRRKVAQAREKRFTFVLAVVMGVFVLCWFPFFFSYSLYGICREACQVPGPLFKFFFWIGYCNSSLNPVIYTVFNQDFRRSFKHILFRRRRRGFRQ

[2] = molecular target: T2, Alpha-2A adrenergic receptor (Homo sapiens, UniProt P08913)
T2 sequence (P08913 whole entry): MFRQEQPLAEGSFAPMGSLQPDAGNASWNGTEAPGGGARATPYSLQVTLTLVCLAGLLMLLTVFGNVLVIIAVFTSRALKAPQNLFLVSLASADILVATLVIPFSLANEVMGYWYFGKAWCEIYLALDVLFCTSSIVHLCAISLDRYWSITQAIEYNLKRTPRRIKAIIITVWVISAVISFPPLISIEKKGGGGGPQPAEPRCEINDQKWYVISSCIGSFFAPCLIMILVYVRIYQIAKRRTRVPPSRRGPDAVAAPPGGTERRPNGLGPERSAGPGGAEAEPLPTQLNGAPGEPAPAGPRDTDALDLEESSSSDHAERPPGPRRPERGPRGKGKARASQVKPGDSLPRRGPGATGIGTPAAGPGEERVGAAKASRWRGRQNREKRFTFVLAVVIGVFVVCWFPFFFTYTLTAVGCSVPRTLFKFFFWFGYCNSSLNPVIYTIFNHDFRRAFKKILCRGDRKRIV

[3] = molecular target: 5-hydroxytryptamine receptor 7 (Homo sapiens, UniProt P34969)
[4] = molecular target: Sodium-dependent noradrenaline transporter (Homo sapiens, UniProt P23975)
[5] = molecular target: Sodium-dependent serotonin transporter (Homo sapiens, UniProt P31645)
Chain of Sodium-dependent serotonin transporter (P31645 whole entry): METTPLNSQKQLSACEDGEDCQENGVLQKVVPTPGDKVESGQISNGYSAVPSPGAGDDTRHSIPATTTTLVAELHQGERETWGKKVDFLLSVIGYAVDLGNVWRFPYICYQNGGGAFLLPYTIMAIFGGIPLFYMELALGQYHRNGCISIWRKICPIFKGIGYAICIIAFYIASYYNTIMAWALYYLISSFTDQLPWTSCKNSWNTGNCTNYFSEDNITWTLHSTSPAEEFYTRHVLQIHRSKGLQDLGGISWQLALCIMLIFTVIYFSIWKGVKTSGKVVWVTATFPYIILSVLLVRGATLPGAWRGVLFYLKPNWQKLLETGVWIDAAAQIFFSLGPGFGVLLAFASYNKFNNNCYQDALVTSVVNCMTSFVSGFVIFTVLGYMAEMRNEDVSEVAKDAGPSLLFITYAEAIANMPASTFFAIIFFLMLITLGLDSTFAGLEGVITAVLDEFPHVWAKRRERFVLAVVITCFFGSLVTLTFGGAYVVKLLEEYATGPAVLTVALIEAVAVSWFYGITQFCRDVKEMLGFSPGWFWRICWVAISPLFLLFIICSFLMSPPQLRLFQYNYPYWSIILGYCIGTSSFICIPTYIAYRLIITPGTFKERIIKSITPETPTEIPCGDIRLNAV

Chain of Sodium-dependent noradrenaline transporter (P23975 whole entry): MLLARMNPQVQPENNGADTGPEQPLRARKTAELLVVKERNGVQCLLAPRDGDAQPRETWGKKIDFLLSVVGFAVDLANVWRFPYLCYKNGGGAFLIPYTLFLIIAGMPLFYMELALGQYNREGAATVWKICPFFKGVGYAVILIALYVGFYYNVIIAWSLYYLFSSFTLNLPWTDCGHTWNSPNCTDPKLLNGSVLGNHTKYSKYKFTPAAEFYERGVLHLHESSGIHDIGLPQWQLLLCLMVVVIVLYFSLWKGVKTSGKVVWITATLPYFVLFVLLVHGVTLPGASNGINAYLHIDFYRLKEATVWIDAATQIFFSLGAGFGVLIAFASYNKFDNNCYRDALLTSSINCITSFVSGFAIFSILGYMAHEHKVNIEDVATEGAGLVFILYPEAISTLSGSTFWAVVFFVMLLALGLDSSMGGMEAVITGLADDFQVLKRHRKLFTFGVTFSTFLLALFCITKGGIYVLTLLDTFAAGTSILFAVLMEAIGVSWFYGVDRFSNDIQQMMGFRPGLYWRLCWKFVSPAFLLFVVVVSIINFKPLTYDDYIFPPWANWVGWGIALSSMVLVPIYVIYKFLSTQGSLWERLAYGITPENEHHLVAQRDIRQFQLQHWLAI
Chain of 5-hydroxytryptamine receptor 7 (P34969 whole entry): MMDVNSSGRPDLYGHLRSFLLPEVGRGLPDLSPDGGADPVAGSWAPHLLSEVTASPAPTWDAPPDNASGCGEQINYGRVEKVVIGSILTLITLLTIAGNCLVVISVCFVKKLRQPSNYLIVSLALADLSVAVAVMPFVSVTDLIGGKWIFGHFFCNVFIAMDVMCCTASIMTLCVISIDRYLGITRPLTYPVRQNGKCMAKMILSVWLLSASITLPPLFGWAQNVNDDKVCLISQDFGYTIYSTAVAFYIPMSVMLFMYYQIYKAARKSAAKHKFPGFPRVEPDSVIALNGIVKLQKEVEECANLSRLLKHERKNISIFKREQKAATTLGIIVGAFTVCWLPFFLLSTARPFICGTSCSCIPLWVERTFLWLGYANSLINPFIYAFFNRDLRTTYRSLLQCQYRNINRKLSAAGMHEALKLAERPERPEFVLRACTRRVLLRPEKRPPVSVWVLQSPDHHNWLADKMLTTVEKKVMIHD

| SMILES | Ki [1] | Ki [2] | Ki [3] [nM] | Ki [4] | Ki [5] [nM] |
| --- | --- | --- | --- | --- | --- |
| CNC(C)C(O)c1ccccc1 (configuration not stated) [CAS_24221-86-1] | 708 nM and 1220 nM | 2010 nM |  |  |  |
| CNC(C)C(=O)c1ccccc1 (configuration not stated) [NSC_1576] | 605 nM | 9020 nM | 1000 | 13.1 nM | 1770 |
| CN[C@@H](C)Cc1ccccc1 [METHAMPHETAMINE (+)] |  |  |  | 12.3 nM | 736 |
| CC(N)C(O)c1ccccc1 [(1R, 2S)-2-Amino-1-phenyl-propan-1-ol] |  | 3020 nM and 1330 nM and 2610 nM and 2600 nM | 7000 | 137 nM and 42.1 nM and 15 nM and 30.1 nM |  |
| CC(N)C(=O)c1ccccc1 (configuration not stated) [CAS_62258] | 765 nM | 6810 nM | 2700 | 12.4 nM | 2370 |
